# Results reported in patent publication US20040254170A1, “Method of treating functional bowel disorders” (Dynogen, Inc., priority 2003, published 2004).
# Values joined by “and” are separate entries in the source; they are usually repeats but may differ in a detail not shown here. Equal entries are not always repeated. Where two headings read alike, the source gives them in different places.
# How the values were obtained:
# [1] = system: male F-344 rats subjected to water avoidance stress; assay: Water Avoidance Stress (WAS) model, fecal pellet output; assay type: in vivo, rat; conditions: for number of fecal pellets produced during 1 hour of WAS compared to vehicle: all doses i.p. (MCI-225, nisoxetine 3, 10, 30 mg/kg; ondansetron 1, 5, 10 mg/kg)
# Text: The model used in this example provided a method of determining the ability of MCI-225 to normalize accelerated colonic transit induced by water avoidance stress (WAS). […] The model provides a method of evaluating the effectiveness of a compound in a specific patient group of IBS sufferers where stress induced colonic motility is considered a significant contributing factor. All rats underwent sham stress (1-hour in stress chamber without water) for 2-4 consecutive days before undergoing WAS (sham was performed until rats produced 0-1 pellet per hour for 2 consecutive days). At the end of the 1-hour stress period, the fecal pellets were counted and recorded. WAS causes an acceleration of colonic transit, which can be quantified by counting the number of fecal pellets, produced during the stress procedure. Rats were placed for 1-hour into a stress chamber onto a raised platform 7.5 cm×7.5 cm×9 cm (L×W×H) in the center of a stress chamber filled with room temperature water 8 cm in depth. The stress chamber was constructed from a rectangular plastic tub (40.2×60.2×31.2 cm). […] Ondansetron was supplied from APIN Chemicals LTD. […] MCI-225 was provided by Mitsubishi Pharma Corp. All drugs were dissolved in a vehicle of 100% propylene glycol (1,2-propanediol) by sonicating for a period of 10 minutes. Propylene glycol was obtained from Sigma Chemical Co. […] All drugs and the vehicle were administered as an i.p. injection in a volume of 0.2 mL.
# male F-344 rats = assay: Small Intestinal Transit (SIT) Rodent Model, charcoal meal; assay type: in vivo, rat; conditions: for Small intestinal transit, Mean (% of total small intestinal length): 15 min after charcoal meal
# Text: Specifically, the effects of MCI-225, the reference compounds (ondansetron and nisoxetine) and the vehicle on small intestinal transit were investigated in rats under control conditions. Following an overnight fast, rats were brought to the laboratory in their home cages and received an i.p. injection of one of the following: MCI-225, 100% propylene glycol (vehicle), ondansetron, nisoxetine and a combination of ondansetron and nisoxetine. Control rats received no treatment. The treated rats were placed back in the home cages and after 30 min, were fed a 2 mL charcoal meal via an oral gavage. Small intestinal transit was measured following 15 min test-period. Each rat was placed briefly in a glass chamber with IsoFlo for anesthesia and sacrificed. The stomach and the small intestine were removed and the total length of the small intestine was measured. Transit was then measured as the distance that the charcoal meal had traveled along the small intestine and expressed as % of the total length. Animals were randomly assigned to experimental groups and experiments were performed as illustrated in Table 3.
# Small intestinal transit in rats was investigated by the passage of a charcoal meal along the small intestine during a defined time period (15-min). The animals were deprived of food for 12-16 hrs prior to the experiments. Rats were given a charcoal meal (a mixture of charcoal, gum arabic, and distilled water) as a 2 mL oral gavage and were sacrificed after a 15-min test period. The distance traveled by the charcoal meal was quantified as a percent of the small intestinal length, using the following equation:
# Transit (%)=cm traveled by meal/cm total small intestinal length×100
# Small intestinal transit was evaluated in relative units (%) of the total intestinal length in the following groups receiving different drug treatment: naïve (untreated), vehicle (propylene glycol, 200 μL i.p.), MCI-225 (3, 10 and 30 mg/kg, i.p.), nisoxetine (3, 10 and 30 mg/kg, i.p.), ondansetron (1, 5 and 10 mg/kg, i.p.) and a combination of nisoxetine (10 mg/kg, i.p.) and ondansetron (5 mg/kg, i.p.). A total of 61 experiments were performed (4-6 rats per group).
# [2] = system: acetic acid sensitized male Fisher rats; assay: Visceromotor response to colorectal distension, acetic acid-induced colonic hypersensitivity; assay type: in vivo, rat; conditions: for visceromotor response (number of abdominal contractions) to CRD compared to vehicle: all doses i.p. (ondansetron 1, 5, 10 mg/kg; nisoxetine 3, 10, 30 mg/kg), all distension pressures
# Experimental: The visceromotor behavioral response to colorectal distension was measured by counting the number of abdominal contractions recorded by a strain gauge sutured onto the abdominal musculature as described in Gunter et al., Physiol. […] A 5 cm latex balloon catheter inserted via the anal canal into the colon was used for colorectal distensions. Constant pressure tonic distensions were performed in a graded manner (15, 30 or 60 mmHg) and were maintained for a period of 10 min and the numbers of abdominal muscle contractions were recorded to measure the level of colonic sensation. A 10 min recovery was allowed between distensions.
# J. Physiol. […] In the present study, a low concentration of acetic acid (1.5 ml, 0.6%) was administered intracolonically to sensitize the colon without causing histological damage to the colonic mucosa as described in previous studies (Gunter et al., supra).
# Injection volume was 0.2 mL using 100% propylene glycol as the vehicle. Three consecutive colorectal distensions at 15, 30 or 60 mmHg applied at 10-min intervals were recorded. Visceromotor responses were evaluated as the number of abdominal muscle contractions recorded during the 10-min periods of colorectal distension.
# Adult male rats were used in the study. […] Specifically, rats were anesthetized with Isoflurane (2%) and were instrumented with a strain gauge force transducer for recording of abdominal muscle contractions. A latex balloon and catheter were inserted 11 cm into the colon. The animals were allowed a 30-min period to completely recover from the anesthesia and were then subjected to intracolonic infusion of acetic acid (1.5 mL, 0.6%). An additional 30-min period was allowed for sensitization of the colon. […] The protocol for colorectal distension was initiated 30-min post drug administration. After a basal reading of the number of abdominal contractions with the balloon inserted but not distended, three consecutive 10-min lasting colorectal distensions at 15, 30, and 60 mmHg were applied at 10-min intervals. Colorectal sensitivity was evaluated by counting the number of reflex abdominal contractions (i.e. the visceromotor response) observed within each distension period.
# Acetic acid-induced colonic hypersensitivity in rats has been described by Langlois et al. and Plourde et al., referenced above.
# The visceromotor behavioral response to colorectal distension was measured by counting the number of abdominal contractions recorded by a strain gauge sutured onto the abdominal musculature as previously described Gunter et al., referenced above. Colorectal distensions were carried out utilizing a 5 cm latex balloon catheter inserted into the colon via the anal canal. Constant pressure tonic distensions were performed in a graded manner, i.e., the pressure was increased to the desired level of 15, 30, or 60 mmHg and then maintained for a period of 10 minutes during which the number of abdominal contractions were recorded to measure the level of colonic sensation. Ten minute recovery periods were allowed following each distension.
# 5-HT3 receptor = target: T1, 5-HT3 receptor (Mus musculus, UniProt P23979); conditions: radioligand binding; read-out: Ki, affinity for the 5-HT3 receptor; cited from earlier work
# T1 construct: host or cells: N1E-115 mouse neuroblastoma cells
# T1 sequence (P23979 24-489): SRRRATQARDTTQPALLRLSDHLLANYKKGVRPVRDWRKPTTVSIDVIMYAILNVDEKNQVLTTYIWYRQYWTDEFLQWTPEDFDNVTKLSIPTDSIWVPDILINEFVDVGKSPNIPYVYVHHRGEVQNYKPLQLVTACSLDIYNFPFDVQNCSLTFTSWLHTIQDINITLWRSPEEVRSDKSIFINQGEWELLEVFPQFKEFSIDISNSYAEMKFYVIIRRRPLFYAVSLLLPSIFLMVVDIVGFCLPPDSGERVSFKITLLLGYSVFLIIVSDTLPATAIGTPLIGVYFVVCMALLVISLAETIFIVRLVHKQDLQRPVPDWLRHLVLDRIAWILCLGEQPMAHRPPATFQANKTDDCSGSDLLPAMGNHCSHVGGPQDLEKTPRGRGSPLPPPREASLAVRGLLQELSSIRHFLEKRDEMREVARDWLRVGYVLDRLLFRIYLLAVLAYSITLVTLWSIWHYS
# [3] = target: T2, noradrenaline transporter ([^3H]NA uptake) (Rattus norvegicus, UniProt Q9WTR4); conditions: read-out: Ki, inhibition of [3H]NA uptake, cited from earlier work
# T2 construct: The [^3H]NA uptake assays are performed on the cortical and hypothalamic synaptosomes; from tissue; host or cells: rat hypothalamic and cortical synaptosomes (P2 fraction)
# [4] = target: T3, dopamine reuptake ([^3H]DA uptake) (Rattus norvegicus, UniProt P23977); conditions: synaptosomes from rat striatal tissue; read-out: Ki, inhibition of [3H]DA uptake; cited from earlier work
# T3 construct: the [^3H]DA uptake assays are performed on striatal synaptosomes; from tissue; host or cells: rat striatal synaptosomes (P2 fraction)
# [5] = target: T4, serotonin reuptake ([^3H]5-HT uptake) (Rattus norvegicus, UniProt P31652); conditions: cited from earlier work
# T4 construct: The [^3H]5-HT uptake assays are performed on the cortical, hypothalamic and hippocampal synaptosomes; from tissue; host or cells: rat hypothalamic, cortical and hippocampal synaptosomes (P2 fraction)
# T4 sequence (P31652 whole entry): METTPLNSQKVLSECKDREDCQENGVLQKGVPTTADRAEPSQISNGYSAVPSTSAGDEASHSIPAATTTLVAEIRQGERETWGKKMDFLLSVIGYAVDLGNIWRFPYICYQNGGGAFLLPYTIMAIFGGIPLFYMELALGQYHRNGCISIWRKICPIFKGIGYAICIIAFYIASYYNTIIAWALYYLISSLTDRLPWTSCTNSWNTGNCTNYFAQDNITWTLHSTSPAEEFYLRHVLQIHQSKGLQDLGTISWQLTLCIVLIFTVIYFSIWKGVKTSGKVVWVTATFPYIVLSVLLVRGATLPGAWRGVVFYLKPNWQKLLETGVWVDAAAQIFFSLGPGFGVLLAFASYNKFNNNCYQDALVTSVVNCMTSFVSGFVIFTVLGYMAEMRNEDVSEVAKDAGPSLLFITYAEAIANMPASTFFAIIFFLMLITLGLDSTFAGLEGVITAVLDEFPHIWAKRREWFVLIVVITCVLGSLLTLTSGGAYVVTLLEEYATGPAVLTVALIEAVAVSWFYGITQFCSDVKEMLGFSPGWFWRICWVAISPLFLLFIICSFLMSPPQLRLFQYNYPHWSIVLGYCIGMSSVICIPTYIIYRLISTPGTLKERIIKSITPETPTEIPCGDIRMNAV
# T2 sequence (Q9WTR4 1-597): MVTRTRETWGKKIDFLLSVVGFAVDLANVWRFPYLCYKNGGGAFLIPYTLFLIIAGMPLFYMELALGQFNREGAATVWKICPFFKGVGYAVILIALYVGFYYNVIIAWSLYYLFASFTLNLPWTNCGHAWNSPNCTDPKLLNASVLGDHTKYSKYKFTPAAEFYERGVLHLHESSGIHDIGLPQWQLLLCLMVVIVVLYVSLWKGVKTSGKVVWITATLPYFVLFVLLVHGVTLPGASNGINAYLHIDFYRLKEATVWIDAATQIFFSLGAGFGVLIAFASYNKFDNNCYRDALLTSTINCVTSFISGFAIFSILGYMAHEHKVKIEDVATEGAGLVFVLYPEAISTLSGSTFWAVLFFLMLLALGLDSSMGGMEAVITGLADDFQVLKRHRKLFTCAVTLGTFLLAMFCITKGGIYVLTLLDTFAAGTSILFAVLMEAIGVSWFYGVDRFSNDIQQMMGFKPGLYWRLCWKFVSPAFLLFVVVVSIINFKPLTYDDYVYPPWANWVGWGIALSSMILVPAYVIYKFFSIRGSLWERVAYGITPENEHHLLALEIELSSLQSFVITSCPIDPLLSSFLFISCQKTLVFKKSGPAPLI
# T3 sequence (P23977 whole entry): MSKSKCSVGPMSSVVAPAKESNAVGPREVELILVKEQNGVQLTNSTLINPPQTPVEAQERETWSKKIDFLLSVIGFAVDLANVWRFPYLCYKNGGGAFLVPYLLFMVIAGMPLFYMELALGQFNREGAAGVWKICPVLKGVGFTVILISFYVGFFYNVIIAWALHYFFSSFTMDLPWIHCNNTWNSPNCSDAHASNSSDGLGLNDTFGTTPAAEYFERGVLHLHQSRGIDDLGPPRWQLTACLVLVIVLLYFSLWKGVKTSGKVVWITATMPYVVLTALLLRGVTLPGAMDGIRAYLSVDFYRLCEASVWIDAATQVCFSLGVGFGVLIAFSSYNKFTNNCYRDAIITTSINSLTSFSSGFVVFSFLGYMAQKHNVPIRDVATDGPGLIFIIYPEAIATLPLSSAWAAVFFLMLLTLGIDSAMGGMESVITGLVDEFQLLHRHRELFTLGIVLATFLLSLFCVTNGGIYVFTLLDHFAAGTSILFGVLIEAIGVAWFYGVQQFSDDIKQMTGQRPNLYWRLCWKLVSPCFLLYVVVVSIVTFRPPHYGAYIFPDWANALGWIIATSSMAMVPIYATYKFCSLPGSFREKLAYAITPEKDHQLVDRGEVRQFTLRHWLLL
structure (smiles),measurement,setting,value
CNCCC(Oc1ccccc1OC)c1ccccc1 (stereo not drawn) [Nisoxetine],number of fecal pellets produced during WAS compared to vehicle,[1]; 10 and 30 mg/kg i.p.,significantly fewer
same,number of fecal pellets produced during 1 hour of WAS compared to vehicle,[1],reduced by all doses
same,"Small intestinal transit, Mean (% of total small intestinal length)",male F-344 rats; 3 mg/kg i.p.,40.3%
same,"Small intestinal transit, Mean (% of total small intestinal length)",male F-344 rats; 10 mg/kg i.p.,38.6%
same,animals with charcoal meal completely retained in the stomach,male F-344 rats; 30 mg/kg i.p.,4 out of 5
same,small intestinal transit,male F-344 rats; 30 mg/kg i.p.,almost completely inhibited
same,"Small intestinal transit, Mean (% of total small intestinal length)",male F-344 rats; 30 mg/kg i.p.,4.7%
same,small intestinal transit,male F-344 rats; 3 or 10 mg/kg i.p.,tendency to decrease
same,behavior in the home cage during the experiments,"[2]; Example 2, 30 mg/kg i.p.",increased exploratory behavior
same,visceromotor response (number of abdominal contractions) to CRD compared to vehicle,[2]; Example 2,no significant effect
Cc1nccn1CC1CCc2c(c3ccccc3n2C)C1=O (stereo not drawn) [Ondansetron],number of fecal pellets produced during 1 hour of WAS compared to vehicle,[1],significantly less
same,"Small intestinal transit, Mean (% of total small intestinal length)",male F-344 rats; 1 mg/kg i.p.,27.6%
same,"Small intestinal transit, Mean (% of total small intestinal length)",male F-344 rats; 5 mg/kg i.p.,32.1%
same,"Small intestinal transit, Mean (% of total small intestinal length)",male F-344 rats; 10 mg/kg i.p.,18.4%%
same,small intestinal transit compared to vehicle,"male F-344 rats; across doses i.p. (MCI-225 3, 10, 30 mg/kg; ondansetron 1, 5, 10 mg/kg)",significant reduction
same,advance of the charcoal meal from the stomach into the small intestine,male F-344 rats; doses tested i.p.,a portion of the charcoal meal was always found to advance
same,visceromotor response (number of abdominal contractions) to CRD compared to vehicle,[2]; Example 2,significant dose-dependent inhibition
same,changes in behavioral activity of the rats,"[2]; Example 2, following treatment 1, 5 or 10 mg/kg i.p.",No significant changes
same,responses to moderate and high intraluminal pressure,"[2]; Example 2, highest dose 10 mg/kg i.p., 30 and 60 mmHg, responses not abolished",reduced these responses to levels characteristic for naïve non-sensitized rats
"Cc1cc2c(-c3ccccc3F)nc(N3CCNCC3)nc2s1 [MCI-225, 4-(2-fluorophenyl)-6-methyl-2-(1-piperazinyl)thieno[2,3-d]pyrimidine]",Ki,5-HT3 receptor,< 100 nM
same,"Small intestinal transit, Mean (% of total small intestinal length)",male F-344 rats; 3 mg/kg i.p.,30.1%
same,"Small intestinal transit, Mean (% of total small intestinal length)",male F-344 rats; 10 mg/kg i.p.,4.2±2.6% and 4.2%
same,"Small intestinal transit, Mean (% of total small intestinal length)",male F-344 rats; 30 mg/kg i.p.,8.8%
same,Ki,[3]; synaptosomes from rat cortical tissue,0.696 nM
same,Ki,[3]; synaptosomes from rat hypothalamic tissue,35 nM
same,animals in which the visceromotor response to CRD was eliminated,"[2]; Example 1, 30 mg/kg i.p., n=6, CRD 15, 30, 60 mmHg",50%
same,Ki,[4],14800 nM
same,Ki,"[5]; synaptosomes from rat cortical tissue, read-out: Ki, inhibition of [3H]5-HT uptake",1070 nM
same,Ki,"[5]; synaptosomes from rat hippocampal tissue, read-out: Ki, inhibition of serotonin uptake",244 nM
same,Ki,"[5]; synaptosomes from rat hypothalamic tissue, read-out: Ki, inhibition of [3H]5-HT uptake",491 nM
